In patent US20210198269A1, “INHIBITORS OF GLUCOSE TRANSPORTERS (GLUTs)” (LEAD DISCOVERY CENTER GMBH, priority 2018, published 2021):

Tests used:
Assay type in all cases: cell-based
GLUT4 = biological target: T1, GLUT4 (Homo sapiens, UniProt P14672); assay: GLUT4 transporter activity assay (2-DG uptake) in CHO-hGLUT4 cells; settings: CHO-hGLUT4 cell line; read-out: GLUT4 inhibitory activity (IC50)
T1 sequence (P14672 1-509): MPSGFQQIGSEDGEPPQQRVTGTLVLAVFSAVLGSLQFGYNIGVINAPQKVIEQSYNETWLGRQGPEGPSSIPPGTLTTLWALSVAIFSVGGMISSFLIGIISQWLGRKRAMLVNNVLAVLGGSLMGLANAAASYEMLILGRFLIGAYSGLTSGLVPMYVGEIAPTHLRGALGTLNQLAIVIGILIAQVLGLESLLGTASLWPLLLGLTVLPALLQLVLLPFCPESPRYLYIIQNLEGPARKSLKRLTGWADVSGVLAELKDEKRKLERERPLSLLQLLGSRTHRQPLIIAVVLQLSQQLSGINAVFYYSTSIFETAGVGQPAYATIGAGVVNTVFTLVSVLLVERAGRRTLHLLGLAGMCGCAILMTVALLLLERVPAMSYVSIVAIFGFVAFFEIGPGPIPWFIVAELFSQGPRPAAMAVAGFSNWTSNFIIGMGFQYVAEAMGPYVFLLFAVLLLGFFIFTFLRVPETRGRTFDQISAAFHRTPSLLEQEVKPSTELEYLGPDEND
Description: CHOK1-SLC2A4 cells were generated by transfection of CHOK1 cells with pCMV6-Entry-GLUT4 (Origene #SC125240) using Lipofectamin2000 according to the supplier's instructions. Briefly, 1.5E5 cells/well CHOK1 cells were seeded in 6-well cell culture plates. After overnight incubation, DNA-lipid complexes (2 μg plasmid DNA, DNA:lipid ratio 1:10) were prepared in OptiMEM and then added to the cells. After 5 days incubation, 800 μg G418 was added to the culture medium to generate a stable polyclone. For monoclone selection, single cells were re-plated in 96-well plates, expanded and selected by transgene overexpression and functional performance.
(§1) GLUT 1, 2, 3 and 4 Transporter Activity Assays
(§2) Assays were based on the specificity assays reported by Kapoor et al., Proceedings of the National Academy of Sciences 2016, 113 (17) 4711-4716. For GLUT1, GLUT2, GLUT3 and GLUT4 specificity testing DLD1, CHO-hGLUT2, DLD-1-GLUT1−/− and CHO-hGLUT4 cell lines were used.
(§3) Assay protocols for 2-deoxy-Glucose (2-DG) Uptake Assay with DLD1 or DLD1-Glut1(−/−) cells or 7,000 CHOK1-SLC2A4 cells lines:
(§4) 14,000 DLD1 or DLD1-Glut1(−/−) cells or 7,000 CHOK1-SLC2A4 cells were seeded in black, clear bottom 384-well plates in glucose- and phenolred-free RPMI1640 medium supplemented with 1% FCS and 2 mM L-glutamine and allowed to attach overnight. Next day, cells were washed and incubated with compounds or DMSO and 1 mM 2-DG in glucose- and phenolred-free RPMI1640 medium for 30 min. Cells were then washed and lysed in 0.06 M HCl and 1% CHAPS for 15 min at 65° C. The amount of 2-DG in the lysate was determined by means of enzyme-coupled assay. For this 16 U/mL glucose-6-phosphate dehydrogenase, 0.2 U/mL diaphorase, 0.1 mM NADP^+ and 10 μM resazurin were added to the lysates. Resorufin fluorescence was determined as a measure of 2-DG uptake at ex/em 535/590 nm with a Victor Multilabel plate reader (Perkin Elmer). Blank values were subtracted from all readings and values were normalized to the DMSO control.

GLUT1 = biological target: T2, GLUT1 (Homo sapiens, UniProt P11166); assay: GLUT1 transporter activity assay (2-DG uptake) in DLD1 cells; settings: DLD1 cell line; read-out: GLUT1 inhibitory activity (IC50)
T2 construct: host or cells: DLD-1 (DLD1) cells
T2 sequence (P11166 1-492): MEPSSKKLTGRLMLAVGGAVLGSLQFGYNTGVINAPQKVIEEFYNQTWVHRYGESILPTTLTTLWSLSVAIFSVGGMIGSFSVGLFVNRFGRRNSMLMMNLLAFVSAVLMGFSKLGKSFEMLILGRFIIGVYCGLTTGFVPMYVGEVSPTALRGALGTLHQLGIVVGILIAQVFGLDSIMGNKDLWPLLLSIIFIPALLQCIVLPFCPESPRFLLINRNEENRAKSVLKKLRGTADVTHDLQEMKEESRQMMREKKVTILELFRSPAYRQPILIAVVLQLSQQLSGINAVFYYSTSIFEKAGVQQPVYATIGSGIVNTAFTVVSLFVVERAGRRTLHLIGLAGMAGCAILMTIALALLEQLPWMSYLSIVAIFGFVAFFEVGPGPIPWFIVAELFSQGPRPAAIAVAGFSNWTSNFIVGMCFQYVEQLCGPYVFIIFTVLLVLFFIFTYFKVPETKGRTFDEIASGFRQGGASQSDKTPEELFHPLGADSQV
Text: as §1, §2, §3, §4

GLUT3 = biological target: T3, GLUT3 (Homo sapiens, UniProt P11169); assay: GLUT3 transporter activity assay (2-DG uptake) in DLD-1-GLUT1-/- cells; settings: DLD-1-GLUT1-/- cell line; read-out: GLUT3 inhibitory activity (IC50)
T3 construct: host or cells: DLD-1-GLUT1(-/-) cells
T3 sequence (P11169 1-496): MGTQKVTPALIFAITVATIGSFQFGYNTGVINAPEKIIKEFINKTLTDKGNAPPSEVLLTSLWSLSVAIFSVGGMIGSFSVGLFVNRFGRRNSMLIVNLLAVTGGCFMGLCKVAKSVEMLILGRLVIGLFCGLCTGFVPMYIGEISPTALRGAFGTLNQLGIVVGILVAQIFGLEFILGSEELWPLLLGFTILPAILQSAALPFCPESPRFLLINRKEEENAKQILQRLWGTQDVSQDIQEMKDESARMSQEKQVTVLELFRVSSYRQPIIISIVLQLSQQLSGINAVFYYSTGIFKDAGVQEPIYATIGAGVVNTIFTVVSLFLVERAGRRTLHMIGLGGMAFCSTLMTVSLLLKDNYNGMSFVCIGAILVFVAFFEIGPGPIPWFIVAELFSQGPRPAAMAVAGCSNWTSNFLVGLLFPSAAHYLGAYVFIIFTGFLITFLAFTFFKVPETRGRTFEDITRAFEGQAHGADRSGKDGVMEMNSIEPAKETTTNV
Text: as §1, §2, §3, §4

Cc1ccc(CCNC(=O)c2cccc(N3C(=O)NC4CC3(C)Oc3c(OCC5CC5)cccc34)c2)cc1 (stereo not drawn) [Compound A08, 3-(10-(Cyclopropylmethoxy)-2-methyl-4-oxo-5,6-dihydro-2H-2,6-methanobenzo[g][1,3,5]oxadiazocin-3(4H)-yl)-N-(4-methylphenethyl)benzamide]
IC50 (GLUT4): 1 to 4 µM | IC50 (GLUT1): ≤ 0.3 µM | IC50 (GLUT3): 0.3 to 1 µM

Cc1ccc(CCNC(=O)c2cccc(N3C(=O)NC4CC3(C)Oc3c(OCc5ccncc5)cccc34)c2)cc1 (stereo not drawn) [Compound A09, 3-(2-Methyl-4-oxo-10-(pyridin-4-ylmethoxy)-5,6-dihydro-2H-2,6-methanobenzo[g][1,3,5]oxadiazocin-3(4H)-yl)-N-(4-methylphenethyl)benzamide]
IC50 (GLUT4): 4 to 10 µM | IC50 (GLUT1): ≤ 0.3 µM | IC50 (GLUT3): 0.3 to 1 µM

Cc1ccc(CCNC(=O)c2cccc(N3C(=O)NC4CC3(C)Oc3c(OCc5cccnc5N)cccc34)c2)cc1 (stereo not drawn) [Compound A12, 3-(10-((2-Aminopyridin-3-yl)methoxy)-2-methyl-4-oxo-5,6-dihydro-2H-2,6-methanobenzo[g][1,3,5]oxadiazocin-3(4H)-yl)-N-(4-methylphenethyl)benzamide]
IC50 (GLUT4): > 25 µM | IC50 (GLUT1): 1 to 4 µM | IC50 (GLUT3): 1 to 4 µM

Cc1ccc(CCNC(=O)c2cccc(N3C(=O)NC4CC3(C)Oc3c(OCc5cncnc5)cccc34)c2)cc1 (stereo not drawn) [Compound A13, 3-(2-Methyl-4-oxo-10-(pyrimidin-5-ylmethoxy)-5,6-dihydro-2H-2,6-methanobenzo[g][1,3,5]oxadiazocin-3(4H)-yl)-N-(4-methylphenethyl)benzamide]
IC50 (GLUT4): > 25 µM | IC50 (GLUT1): 0.3 to 1 µM | IC50 (GLUT3): 0.3 to 1 µM

Cc1ccc(CCNC(=O)c2cccc(N3C(=O)NC4CC3(C)Oc3c(OCc5cncc(C)c5)cccc34)c2)cc1 (stereo not drawn) [Compound A14, 3-(2-Methyl-10-((5-methylpyridin-3-yl)methoxy)-4-oxo-5,6-dihydro-2H-2,6-methanobenzo[g][1,3,5]oxadiazocin-3(4H)-yl)-N-(4-methylphenethyl)benzamide]
IC50 (GLUT4): 1 to 4 µM | IC50 (GLUT1): ≤ 0.3 µM | IC50 (GLUT3): ≤ 0.3 µM

CC12CC(NC(=O)N1c1cccc(C(=O)N3CCc4ccccc43)c1)c1cccc(OCc3ccccc3)c1O2 (stereo not drawn) [Compound A19, 10-(benzyloxy)-3-(3-(indoline-1-carbonyl)phenyl)-2-methyl-5,6-dihydro-2H-2,6-methanobenzo[g][1,3,5]oxadiazocin-4(3H)-one]
IC50 (GLUT4): > 25 µM | IC50 (GLUT1): 10 to 25 µM | IC50 (GLUT3): 1 to 4 µM

Cc1ccc(CCOC(=O)c2cccc(N3C(=O)NC4CC3(C)Oc3c(OCc5ccccc5)cccc34)c2)cc1 (stereo not drawn) [Compound A22, 4-methylphenethyl 3-(10-(benzyloxy)-2-methyl-4-oxo-5,6-dihydro-2H-2,6-methanobenzo[g][1,3,5]oxadiazocin-3(4H)-yl)benzoate]
IC50 (GLUT4): > 25 µM | IC50 (GLUT1): 4 to 10 µM | IC50 (GLUT3): 1 to 4 µM

CC12CC(NC(=O)N1c1cccc(C(=O)NC3Cc4ccccc4C3)c1)c1cccc(OCc3ccccc3)c1O2 (stereo not drawn) [Compound A24, 3-(10-(benzyloxy)-2-methyl-4-oxo-5,6-dihydro-2H-2,6-methanobenzo[g][1,3,5]oxadiazocin-3(4H)-yl)-N-(2,3-dihydro-1H-inden-2-yl)benzamide]
IC50 (GLUT4): 10 to 25 µM | IC50 (GLUT1): 10 to 25 µM | IC50 (GLUT3): 4 to 10 µM

CC12CC(NC(=O)N1c1cccc(C(=O)NC3CCc4ccccc4C3)c1)c1cccc(OCc3ccccc3)c1O2 (stereo not drawn) [Compound A26, 3-(10-(benzyloxy)-2-methyl-4-oxo-5,6-dihydro-2H-2,6-methanobenzo[g][1,3,5]oxadiazocin-3(4H)-yl)-N-(1,2,3,4-tetrahydronaphthalen-2-yl)benzamide]
IC50 (GLUT4): 10 to 25 µM | IC50 (GLUT1): > 25 µM | IC50 (GLUT3): 4 to 10 µM

CCNC(=O)c1cccc(N2C(=O)NC3CC2(C)Oc2c(OCc4ccccc4)cccc23)c1 (stereo not drawn) [Compound A38, 3-(10-(benzyloxy)-2-methyl-4-oxo-5,6-dihydro-2H-2,6-methanobenzo[g][1,3,5]oxadiazocin-3(4H)-yl)-N-(ethyl)benzamide]
IC50 (GLUT4): 10 to 25 µM | IC50 (GLUT1): 10 to 25 µM | IC50 (GLUT3): 4 to 10 µM

CC12CC(NC(=O)N1c1cccc(C(=O)NCc3ccccc3)c1)c1cccc(OCc3ccccc3)c1O2 (stereo not drawn) [Compound A39, 3-(10-(benzyloxy)-2-methyl-4-oxo-5,6-dihydro-2H-2,6-methanobenzo[g][1,3,5]oxadiazocin-3(4H)-yl)-N-(benzyl)benzamide]
IC50 (GLUT4): 10 to 25 µM | IC50 (GLUT1): 10 to 25 µM | IC50 (GLUT3): 4 to 10 µM
